For 1 molecule, GI50 and TGI results are on record in PubChem BioAssay (NCI).

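Where inhibition never reached the appropriate level, the endpoint shown equals the highest concentration tested. Otherwise, values were interpolated linearly from a five-concentration, 48-hour dose response in 96-well plates. GI50 marks 50% less growth. TGI is the concentration that stops growth completely.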

Common to all, as to experiment: NCI anticancer screen, dose series, 48 h
Test [1] relates to HL-60(TB) leukemia.
The subject of test [2] is K-562 leukemia.
The test system of test [3] is NCI/ADR-RES ovarian.
Test [4] concerns ACHN renal.
Test [5] concerns SK-OV-3 ovarian.

For the molecule `NC(N)=Nc1ccc(Oc2cccc(Nc3ccc(Br)c(C(F)(F)F)c3)c2)cn1`, the GI50 in test [1] is 1630 nM; in test [2] it was 2070 nM; in test [3], 3.93 µM; in test [4], 1750 nM; in test [5], 2040 nM. In addition, the TGI in test [1] is 4.12 µM; in test [2] it was more than 100 µM; in test [3], 29.5 µM; in test [4], 3.2 µM; in test [5] it was 3.68 µM.
